Data published in patent US6340698B1, “Antifungal solutions” (priority 1999, dated 2002).

Key:
Format in all cases: physicochemical
Solubility in water = assay: Solubility in water
[1] = Solubility in strong acids (glacial acetic acid, concentrated hydrochloric acid)
Excerpt: For example, 1 g of free itraconazole can be dissolved in about 3 g of glacial acetic acid or about 3 to 4 g of concentrated hydrochloric acid (i.e. 36-38% HCl in water).

[2] = Dilution with water of a solution in strong acid; settings: solution in strong acid diluted with water to weaken the acid
Procedure: However, strongly acidic solutions are unsuitable for oral administration, and if a solution of itraconazole or saperconazole in strong acid is diluted with water to weaken the acid, the itraconazole or saperconazole precipitates.

SMILES	solubility in water (Solubility in water)	solubility in strong acids [1]	behaviour when solution in strong acid is diluted with water [2]
CCC(C)n1ncn(-c2ccc(N3CCN(c4ccc(OCC5COC(Cn6cncn6)(c6ccc(Cl)cc6Cl)O5)cc4)CC3)cc2)c1=O (centres unmarked) [itraconazole, Itraconazole]	practically insoluble in water	soluble in strong acids	
CCC(C)n1ncn(-c2ccc(N3CCN(c4ccc(OC[C@H]5CO[C@](Cn6cncn6)(c6ccc(F)cc6F)O5)cc4)CC3)cc2)c1=O (some centres unmarked) [saperconazole]	practically insoluble in water	soluble in strong acids	precipitates
